Drawing on patent US9663517B2, “Compositions and uses thereof” (Plexxikon Inc., priority 2009, dated 2017), this text covers pKa for one compound.

The series can be described thus: pKa of weakly basic centre. The format is physicochemical. The settings on record: N-7 of the azaindole portion. An excerpt: Propane-1-sulfonic acid {3-[5-(4-chloro-phenyl)-1H-pyrrolo[2,3-b]pyridine-3-carbonyl]-2,4-difluoro-phenyl}-amide is characterized as having functionalities providing both weakly basic and weakly acidic centers which can form organic salt complexes, resulting in improved solubility. For example, the N-7 of the azaindole portion is weakly basic (pKa approximately 4-5) and can form an acid addition salt complex with an organic acid such as benzenesulfonic acid, methylsulfonic acid or toluenesulfonic acid, preferably methanesulfonic acid or toluenesulfonic acid. Such mesylate or tosylate salts provide advantage over the free base, such as an improved solubility, improved intrinsic dissolution rate, and lower melting point than the free base. The improved intrinsic dissolution rate provides an advantage in formulation of the salt, for example, formulation in an amorphous form by methods described in the above examples. The improved solubility provides more efficient and cost effective formulation, for example spray drying or microprecipitated bulk processing can be performed using far less solvent volumes due to the intrinsic solubility. Such advantages may also be provided by formation of the mesylate or tosylate salt in situ during the processing, for example the process of spray drying, solvent controlled precipitation, or pH controlled precipitation. […]

As to `CCCS(=O)(=O)Nc1ccc(F)c(C(=O)c2c[nH]c3ncc(-c4ccc(Cl)cc4)cc23)c1F` [Compound I, propane-1-sulfonic acid {3-[5-(4-chloro-phenyl)-1H-pyrrolo[2,3-b]pyridine-3-carbonyl]-2,4-difluoro-phenyl}-amide], the pKa was 4 to 5.
